Assay results reported in ChEMBL document CHEMBL1201862, “PubChem BioAssay data set” (2004).
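Cultured in 96-well plates, cells were exposed to test compound for 48 hours across five concentrations. GI50 = concentration required for 50% inhibition of growth.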 Active and inactive are the calls of the source. Rule as the data show it: active = GI50 up to about 1.1 µM and inactive = higher.

Experiments:
Test in all cases: growth of human tumour cells (NCI), 48 h
[1] = tested on: 786-0
[2] = tested on: A498
[3] = tested on: A549
[4] = tested on: ACHN
[5] = tested on: CCRF-CEM
[6] = tested on: COLO 205
[7] = tested on: DLD-1
[8] = tested on: DMS-114
[9] = tested on: DMS-273
[10] = tested on: EKVX
[11] = tested on: HCC 2998
[12] = tested on: HCT-116
[13] = tested on: HCT-15
[14] = tested on: HL-60
[15] = tested on: HOP-18
[16] = tested on: HOP-92
[17] = tested on: HT-29
[18] = tested on: IGROV-1
[19] = tested on: K562
[20] = tested on: KM-20L2
[21] = tested on: KM12
[22] = tested on: LOX IMVI
[23] = tested on: LXFL 529
[24] = tested on: M14
[25] = tested on: MOLT-4
[26] = tested on: NCI-H226
[27] = tested on: NCI-H23
[28] = tested on: NCI-H460
[29] = tested on: OVCAR-3
[30] = tested on: OVCAR-4
[31] = tested on: OVCAR-8
[32] = tested on: RPMI-8226
[33] = tested on: SF-295
[34] = tested on: SF-539
[35] = tested on: SK-MEL-28
[36] = tested on: SK-MEL-2
[37] = tested on: SK-MEL-5
[38] = tested on: SK-OV-3
[39] = tested on: SN12C
[40] = tested on: SNB-19
[41] = tested on: SNB-75
[42] = tested on: SNB-78
[43] = tested on: SW-620
[44] = tested on: TK-10
[45] = tested on: U-251
[46] = tested on: UACC-62
[47] = tested on: UO-31
[48] = tested on: CAKI-1
[49] = tested on: HOP-62
[50] = tested on: M19-MEL
[51] = tested on: Malme-3M
[52] = tested on: NCI-H522
[53] = tested on: OVCAR-5
[54] = tested on: RXF 393
[55] = tested on: SF-268
[56] = tested on: SR
[57] = tested on: UACC-257
[58] = tested on: XF498

In the case of `NCCOCn1cc(Cc2cccc(OCc3ccccc3)c2)c(=O)[nH]c1=O`, the GI50 [1] is reported as 53.6 µM (inactive), the GI50 [2] is reported as > 10 µM (inactive) and the GI50 [3] is reported as > 100 µM (inactive). The GI50 [4] was > 10 µM (inactive), the GI50 [5] was 44.1 µM (inactive) and the GI50 [6] was 92.5 µM (inactive). For the same compound, the GI50 [7] was > 100 µM (inactive), the GI50 [8] was 77.1 µM (inactive) and the GI50 [9] was 70 µM (inactive). The GI50 [10] was > 100 µM (inactive), the GI50 [11] was 42.2 µM (inactive) and the GI50 [12] was 86.7 µM (inactive). For the same compound, the GI50 [13] was > 100 µM, the GI50 [14] was 55.5 µM (inactive) and the GI50 [15] was > 100 µM (inactive). The GI50 [16] was > 100 µM (inactive), the GI50 [17] was 71.1 µM (inactive) and the GI50 [18] was > 100 µM (inactive). For the same compound, the GI50 [19] was 42.8 µM (inactive), the GI50 [20] was > 100 µM (inactive) and the GI50 [21] was > 100 µM (inactive). For the same compound, the GI50 [22] was 39 µM (inactive), the GI50 [23] was > 100 µM (inactive) and the GI50 [24] was > 100 µM (inactive). The GI50 [25] was 73.8 µM (inactive), the GI50 [26] was > 100 µM (inactive) and the GI50 [27] was > 100 µM (inactive). The GI50 [28] was 63.5 µM (inactive), the GI50 [29] was > 100 µM (inactive) and the GI50 [30] was 90.6 µM (inactive). For the same compound, the GI50 [31] was > 100 µM (inactive), the GI50 [32] was > 100 µM (inactive) and the GI50 [33] was > 100 µM (inactive). The GI50 [34] was > 100 µM (inactive), the GI50 [35] was > 100 µM (inactive) and the GI50 [36] was > 100 µM (inactive). For the same compound, the GI50 [37] was > 100 µM (inactive), the GI50 [38] was > 100 µM (inactive) and the GI50 [39] was > 100 µM (inactive). The GI50 [40] was > 100 µM (inactive), the GI50 [41] was 79.8 µM (inactive) and the GI50 [42] was > 100 µM (inactive). The GI50 [43] was > 100 µM (inactive), the GI50 [44] was > 100 µM (inactive) and the GI50 [45] was > 100 µM (inactive). For the same compound, the GI50 [46] was > 100 µM (inactive) and the GI50 [47] was > 100 µM (inactive).
With `Nc1cccc2c1-c1c(cccc1[N+](=O)[O-])C2=O` the GI50 [1] was > 100 µM (inactive), the GI50 [2] was > 100 µM (inactive) and the GI50 [3] was > 100 µM (inactive). The GI50 [48] was > 100 µM (inactive), the GI50 [5] was > 100 µM (inactive) and the GI50 [6] was > 100 µM (inactive). For the same compound, the GI50 [7] was > 100 µM (inactive), the GI50 [8] was > 100 µM (inactive) and the GI50 [9] was > 100 µM (inactive). The GI50 [10] was > 100 µM (inactive), the GI50 [11] was > 100 µM (inactive) and the GI50 [12] was > 100 µM (inactive). For the same compound, the GI50 [13] was > 100 µM, the GI50 [14] was > 100 µM (inactive) and the GI50 [15] was > 100 µM (inactive). For the same compound, the GI50 [49] was > 100 µM (inactive), the GI50 [16] was > 100 µM (inactive) and the GI50 [17] was > 100 µM (inactive). The GI50 [18] was > 100 µM (inactive), the GI50 [19] was > 100 µM (inactive) and the GI50 [20] was > 100 µM (inactive). The GI50 [21] was > 100 µM (inactive), the GI50 [22] was > 100 µM (inactive) and the GI50 [24] was > 100 µM (inactive). The GI50 [50] was > 100 µM (inactive), the GI50 [25] was > 100 µM (inactive) and the GI50 [51] was > 100 µM (inactive). The GI50 [26] was > 100 µM (inactive), the GI50 [27] was > 100 µM (inactive) and the GI50 [28] was > 100 µM (inactive). For the same compound, the GI50 [52] was > 100 µM (inactive), the GI50 [29] was > 100 µM (inactive) and the GI50 [30] was > 100 µM (inactive). For the same compound, the GI50 [53] was > 100 µM (inactive), the GI50 [31] was > 100 µM (inactive) and the GI50 [32] was > 100 µM (inactive). For the same compound, the GI50 [54] was > 100 µM (inactive), the GI50 [55] was > 100 µM (inactive) and the GI50 [33] was > 100 µM (inactive). For the same compound, the GI50 [34] was > 100 µM (inactive), the GI50 [37] was > 100 µM (inactive) and the GI50 [38] was > 100 µM (inactive). The GI50 [39] was > 100 µM (inactive), the GI50 [40] was > 100 µM (inactive) and the GI50 [41] was > 100 µM (inactive). For the same compound, the GI50 [42] was > 100 µM (inactive), the GI50 [56] was > 100 µM (inactive) and the GI50 [43] was > 100 µM (inactive). For the same compound, the GI50 [44] was > 100 µM (inactive), the GI50 [45] was > 100 µM (inactive) and the GI50 [57] was > 100 µM (inactive). The GI50 [46] was > 100 µM (inactive) and the GI50 [47] was 0.108 µM (active).
In the case of `Brc1ccc(C2SCc3nc4ccccc4n32)cc1` (configuration not stated), the GI50 [1] is reported as 12.2 µM (inactive), the GI50 [3] is reported as 19 µM (inactive) and the GI50 [4] is reported as 8.2 µM (inactive). For the same compound, the GI50 [48] was 14.4 µM (inactive), the GI50 [5] was 15.7 µM (inactive) and the GI50 [6] was 12.7 µM (inactive). The GI50 [7] was 10.5 µM (inactive), the GI50 [10] was 11.9 µM (inactive) and the GI50 [12] was 6.3 µM (inactive). For the same compound, the GI50 [13] was 11.3 µM, the GI50 [14] was 3.19 µM (inactive) and the GI50 [15] was 45.5 µM (inactive). The GI50 [49] was 7.57 µM (inactive), the GI50 [16] was 1.06 µM (active) and the GI50 [17] was 7.78 µM (inactive). For the same compound, the GI50 [18] was 10.3 µM (inactive), the GI50 [19] was 3.65 µM (inactive) and the GI50 [21] was 5.98 µM (inactive). For the same compound, the GI50 [22] was 6.46 µM (inactive), the GI50 [23] was 7.36 µM (inactive) and the GI50 [24] was 12.4 µM (inactive). The GI50 [50] was 12.4 µM (inactive), the GI50 [25] was 13.4 µM (inactive) and the GI50 [51] was 12.9 µM (inactive). The GI50 [26] was 17.4 µM (inactive), the GI50 [27] was 2.75 µM (inactive) and the GI50 [28] was 12.9 µM (inactive). The GI50 [52] was 2.3 µM (inactive), the GI50 [29] was 4.83 µM (inactive) and the GI50 [30] was 7.53 µM (inactive). The GI50 [53] was 5.4 µM (inactive), the GI50 [31] was 12.8 µM (inactive) and the GI50 [32] was 5.08 µM (inactive). For the same compound, the GI50 [54] was 7.45 µM (inactive), the GI50 [55] was 13.6 µM (inactive) and the GI50 [33] was 11.5 µM (inactive). For the same compound, the GI50 [34] was 18.5 µM (inactive), the GI50 [35] was 4.72 µM (inactive) and the GI50 [36] was 14.1 µM (inactive). The GI50 [37] was 3.72 µM (inactive), the GI50 [38] was 16.7 µM (inactive) and the GI50 [39] was 13.7 µM (inactive). The GI50 [40] was 4.48 µM (inactive), the GI50 [41] was < 0.01 µM (active) and the GI50 [42] was 6.32 µM (inactive). For the same compound, the GI50 [56] was 7.6 µM (inactive), the GI50 [43] was 13.3 µM (inactive) and the GI50 [44] was 13.8 µM (inactive). The GI50 [45] was 12 µM (inactive), the GI50 [46] was 6.68 µM (inactive) and the GI50 [47] was 11 µM (inactive). The GI50 [58] was 11.8 µM (inactive).
